Reference: ChEMBL document CHEMBL1201862, “PubChem BioAssay data set” (2004)
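Assay format: 96-well plates, 48-hour exposure. GI50 marks 50% less growth.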 Active and inactive are the calls of the source. No stated cut-off is given here; in the data, active = GI50 up to about 1.1 µM and inactive = higher.

How the values were obtained:
Assay in all cases: growth of human tumour cells (NCI), 48 h
[1] = system: SNB-75
[2] = system: PC-3
[3] = system: DU-145
[4] = system: NCI-H460
[5] = system: HOP-92
[6] = system: HOP-62
[7] = system: TK-10
[8] = system: SW-620
[9] = system: U-251
[10] = system: OVCAR-4
[11] = system: EKVX
[12] = system: COLO 205
[13] = system: ACHN
[14] = system: SNB-19
[15] = system: UO-31
[16] = system: IGROV-1
[17] = system: NCI/ADR-RES
[18] = system: SF-268
[19] = system: OVCAR-5
[20] = system: SK-OV-3

Compound	GI50 [1]	GI50 [2]	GI50 [3]	GI50 [4]	GI50 [5]	GI50 [6]	GI50 [7]	GI50 [8]	GI50 [9]	GI50 [10]	GI50 [11]	GI50 [12]	GI50 [13]	GI50 [14]	GI50 [15]	GI50 [16]	GI50 [17]	GI50 [18]	GI50 [19]	GI50 [20]
N=C(N)N/N=C/c1c(-c2cccc([N+](=O)[O-])c2)nc2n1CCS2	9.68 µM (inactive)	16.9 µM (inactive)	19 µM (inactive)	22.8 µM (inactive)	14.9 µM (inactive)	22.4 µM (inactive)	23.4 µM (inactive)	5.45 µM (inactive)	14.9 µM (inactive)	13.9 µM (inactive)	25.4 µM (inactive)	8.32 µM (inactive)	17.7 µM (inactive)	13.8 µM (inactive)	15.5 µM (inactive)	15.6 µM (inactive)	77.6 µM (inactive)	19.6 µM (inactive)	35 µM (inactive)	–
CC(=O)N1c2cc(/N=N/N(C)C)ccc2NC(=O)CC1C (centres undefined)	> 100 µM (inactive)	> 100 µM (inactive)	> 100 µM (inactive)	> 100 µM (inactive)	–	> 100 µM (inactive)	> 100 µM (inactive)	> 100 µM (inactive)	> 100 µM (inactive)	> 100 µM (inactive)	> 100 µM (inactive)	> 100 µM (inactive)	> 100 µM (inactive)	> 100 µM (inactive)	> 100 µM (inactive)	> 100 µM (inactive)	> 100 µM (inactive)	> 100 µM (inactive)	> 100 µM (inactive)	> 100 µM (inactive)
Cc1cc(-c2ccccc2)nc2oc(=O)n(C)c12	–	> 100 µM (inactive)	> 100 µM (inactive)	> 100 µM (inactive)	86.5 µM (inactive)	> 100 µM (inactive)	34.4 µM (inactive)	> 100 µM (inactive)	51.1 µM (inactive)	> 100 µM (inactive)	42.8 µM (inactive)	> 100 µM (inactive)	> 100 µM (inactive)	> 100 µM (inactive)	> 100 µM (inactive)	53.3 µM (inactive)	> 100 µM (inactive)	> 100 µM (inactive)	> 100 µM (inactive)	> 100 µM (inactive)
COc1ccc2c(c1)CCc1cc(C(N)=O)c3nnnn3c1-2	–	> 57.9 µM (inactive)	23.7 µM (inactive)	12.2 µM (inactive)	30.9 µM (inactive)	25.5 µM (inactive)	8.13 µM (inactive)	> 100 µM (inactive)	23.6 µM (inactive)	> 81.3 µM (inactive)	< 0.0224 µM (active)	> 100 µM (inactive)	30.5 µM (inactive)	64.7 µM (inactive)	–	39.3 µM (inactive)	> 84.5 µM (inactive)	2.98 µM (inactive)	> 100 µM (inactive)	54.3 µM (inactive)
Cc1csc2c(=O)n(COCc3ccccc3)c(=O)[nH]c12	> 100 µM (inactive)	> 100 µM (inactive)	> 100 µM (inactive)	> 100 µM (inactive)	40.8 µM (inactive)	59.8 µM (inactive)	> 100 µM (inactive)	> 100 µM (inactive)	> 100 µM (inactive)	> 100 µM (inactive)	66.2 µM (inactive)	> 100 µM (inactive)	> 100 µM (inactive)	> 100 µM (inactive)	89.5 µM (inactive)	> 100 µM (inactive)	> 100 µM (inactive)	> 100 µM (inactive)	> 100 µM (inactive)	–
CCOC(=O)CC1(N)CC2c3ccccc3OC(=O)C2C(=O)N1 (centres undefined)	> 100 µM (inactive)	> 100 µM (inactive)	> 100 µM (inactive)	> 100 µM (inactive)	> 100 µM (inactive)	> 100 µM (inactive)	> 100 µM (inactive)	> 100 µM (inactive)	> 100 µM (inactive)	> 100 µM (inactive)	> 100 µM (inactive)	> 100 µM (inactive)	> 100 µM (inactive)	> 100 µM (inactive)	> 100 µM (inactive)	> 100 µM (inactive)	> 100 µM (inactive)	> 100 µM (inactive)	> 100 µM (inactive)	–
C=CCNC(=O)/C(Cc1cc(Br)c(OC)c(Br)c1O)=N\O	–	6.46 µM (inactive)	5.3 µM (inactive)	3.84 µM (inactive)	4.65 µM (inactive)	2.79 µM (inactive)	10.6 µM (inactive)	3.15 µM (inactive)	4.53 µM (inactive)	7.23 µM (inactive)	3.81 µM (inactive)	12.3 µM (inactive)	13.4 µM (inactive)	4.41 µM (inactive)	3.49 µM (inactive)	4.57 µM (inactive)	2.44 µM (inactive)	3.58 µM (inactive)	5.43 µM (inactive)	–
Oc1ccc2ccccc2c1/N=N\c1cccc2ccccc12	> 100 µM (inactive)	> 100 µM (inactive)	> 100 µM (inactive)	–	> 100 µM (inactive)	> 100 µM (inactive)	> 100 µM (inactive)	> 100 µM (inactive)	> 100 µM (inactive)	> 100 µM (inactive)	36 µM (inactive)	> 100 µM (inactive)	> 100 µM (inactive)	> 100 µM (inactive)	> 100 µM (inactive)	29.9 µM (inactive)	> 100 µM (inactive)	> 100 µM (inactive)	> 100 µM (inactive)	> 100 µM (inactive)
COc1cc2c(cc1OC)C(=O)N(c1ccc(O)cc1)C2	–	> 100 µM (inactive)	> 100 µM (inactive)	> 100 µM (inactive)	> 100 µM (inactive)	> 100 µM (inactive)	> 100 µM (inactive)	> 100 µM (inactive)	> 100 µM (inactive)	> 100 µM (inactive)	> 100 µM (inactive)	> 100 µM (inactive)	> 100 µM (inactive)	> 100 µM (inactive)	–	> 100 µM (inactive)	> 100 µM (inactive)	> 100 µM (inactive)	> 100 µM (inactive)	> 100 µM (inactive)
O=C1NC(=O)C(COCc2ccccc2)C2=C1SCCC2 (centres undefined)	> 100 µM (inactive)	> 100 µM (inactive)	> 100 µM (inactive)	> 100 µM (inactive)	> 100 µM (inactive)	> 100 µM (inactive)	–	> 100 µM (inactive)	> 100 µM (inactive)	> 100 µM (inactive)	> 100 µM (inactive)	> 100 µM (inactive)	> 100 µM (inactive)	> 100 µM (inactive)	> 100 µM (inactive)	> 100 µM (inactive)	> 100 µM (inactive)	> 100 µM (inactive)	–	–
CCC(/C=C/C1OC(=O)C=CC1C)=C\C(C)C/C=C/C(C)=C/C(C)C(=O)C(C)C(O)C(C)C/C(C)=C/C(=O)O (centres undefined)	1.91 µM (inactive)	1.27e-05 µM (active)	0.000264 µM (active)	–	4.98e-06 µM (active)	2.62 µM (inactive)	9.4e-05 µM (active)	1.11 µM (active)	2.26 µM (inactive)	1.64 µM (inactive)	1.92e-05 µM (active)	3.69 µM (inactive)	7.4e-06 µM (active)	3.09 µM (inactive)	2.35 µM (inactive)	4.07 µM (inactive)	0.000115 µM (active)	4.07e-06 µM (active)	6.65 µM (inactive)	3.11 µM (inactive)
CCOC(=O)c1c[nH]c(C(=O)OCC)c1-c1cccn1-c1ccccc1	7.06 µM (inactive)	18.7 µM (inactive)	43.2 µM (inactive)	23 µM (inactive)	23.3 µM (inactive)	18.2 µM (inactive)	36 µM (inactive)	35.2 µM (inactive)	19.2 µM (inactive)	–	24.8 µM (inactive)	21.3 µM (inactive)	26.2 µM (inactive)	31.7 µM (inactive)	18.4 µM (inactive)	10.7 µM (inactive)	19.1 µM (inactive)	25.5 µM (inactive)	> 100 µM (inactive)	28.4 µM (inactive)
CC(=O)CC1(OC(=O)C2C(C=C(C)C)C2(C)C)C(=O)Nc2ccccc21 (centres undefined)	51.3 µM (inactive)	37.6 µM (inactive)	> 100 µM (inactive)	82.8 µM (inactive)	–	> 100 µM (inactive)	> 100 µM (inactive)	> 100 µM (inactive)	> 100 µM (inactive)	84.9 µM (inactive)	> 100 µM (inactive)	> 100 µM (inactive)	78.3 µM (inactive)	> 100 µM (inactive)	> 100 µM (inactive)	> 100 µM (inactive)	68.5 µM (inactive)	> 100 µM (inactive)	> 100 µM (inactive)	> 100 µM (inactive)
C[C@H](CS)C(=O)N1c2ccccc2C[C@H]1C(=O)O	> 100 µM (inactive)	> 100 µM (inactive)	> 100 µM (inactive)	> 100 µM (inactive)	–	> 100 µM (inactive)	> 100 µM (inactive)	> 100 µM (inactive)	> 100 µM (inactive)	> 100 µM (inactive)	> 100 µM (inactive)	> 100 µM (inactive)	> 100 µM (inactive)	> 100 µM (inactive)	> 100 µM (inactive)	> 100 µM (inactive)	> 100 µM (inactive)	> 100 µM (inactive)	> 100 µM (inactive)	> 100 µM (inactive)
COc1c2c(c(CC=C(C)C)c3oc(=O)c(-c4ccc(O)cc4)c(O)c13)OC(C)(C)C=C2 [LONCHOCARPIC ACID]	–	31.5 µM (inactive)	38.1 µM (inactive)	24 µM (inactive)	27.2 µM (inactive)	23.4 µM (inactive)	32.4 µM (inactive)	44.1 µM (inactive)	8.26 µM (inactive)	17.7 µM (inactive)	22.3 µM (inactive)	23.4 µM (inactive)	22.1 µM (inactive)	29.5 µM (inactive)	27.8 µM (inactive)	18.4 µM (inactive)	28.7 µM (inactive)	14.1 µM (inactive)	42.9 µM (inactive)	–
